Literature values as cited in patent publication US20140309164A1, “DEUTERATED NUCLEOSIDE PRODRUGS USEFUL FOR TREATING HCV” (priority 2013, published 2014).

Columns and labels:
[1] = pulled from clinical trials
HCV = settings: percent of the trial participants; several large clinical trials

COc1nc(N)nc2c1ncn2[C@@H]1O[C@H](COP(=O)(N[C@@H](C)C(=O)OCC(C)(C)C)Oc2cccc3ccccc23)[C@@H](O)[C@@]1(C)O (some centres unmarked) [BMS-986094]
fatal adverse event in clinical trials [1]: death of a patient due to heart failure

CC(C)OC(=O)[C@H](C)NP(=O)(OC[C@H]1O[C@@H](n2ccc(=O)[nH]c2=O)C(C)(F)C1O)Oc1ccccc1 (some centres unmarked) [Sovaldi, Sofosbuvir]
sustained viral response (SVR) of twelve weeks (HCV): 50-90%

CC(C)OC(=O)[C@H](C)NP(=S)(OC[C@H]1O[C@@H](n2ccc(=O)[nH]c2=O)[C@](C)(O)[C@@H]1O)Oc1ccccc1 (some centres unmarked) [VX-135]
sustained viral response rate four weeks after the completion of treatment (SVR4), intent-to-treat analysis (HCV genotype 1; 200 mg VX-135 in combination with daclatasvir, treatment-naive genotype 1, 10 of 12): 83% | completion of treatment rate (SVR4) (HCV genotype 1; eleven patients who completed 12 weeks of treatment, VX-135 in combination with daclatasvir): 91% | serious adverse event (HCV genotype 1; one patient, VX-135 in combination with daclatasvir): serious adverse event of vomiting/nausea
